System: apyrase
Test: Screen for apyrase inhibitors (Method 1, in vitro phosphate-release absorbance assay)
Assay type: biochemical
Details: inhibitor conc at 1 mM stock, 1 hr room temperature, absorbance 630 nm; rounded average of two assay results
How it was run: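 Phosphate-release colorimetric assay (Windsor method) in 60 mM Hepes, 3 mM MgCl2, 3 mM CaCl2, 3 mM ATP, pH 6.5, with compound or DMSO control added. Released phosphate developed with ammonium molybdate and ascorbic acid/TCA, then stopped with citrate/acetic acid.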

Going from `CSc1cccc(NC(=O)c2ccc(C(=O)Nc3cccc(SC)c3)cc2)c1` [I-861, N1,N4-bis(3-(methylthio)phenyl)terephthalamide] to `N#Cc1cc(C(=O)Nc2cccc(NS(=O)(=O)c3ccccc3)c2)ccc1Cl` [I-210, 4-chloro-3-cyano-N-(3-(phenylsulfonamido)phenyl)benzamide], the “% Inhibition of Apyrase” value rises from 68% to 73%.

First: COc1ccccc1NS(=O)(=O)c1cccc(C(=O)Nc2cccc([N+](=O)[O-])c2)c1 [I-268, 3-(N-(2-methoxyphenyl)sulfamoyl)-N-(3-nitrophenyl)benzamide]
Second: COc1ccccc1NS(=O)(=O)c1cccc(NC(=O)c2cccnc2OC)c1 [I-770, 2-methoxy-N-(3-(N-(2-methoxyphenyl)sulfamoyl)phenyl) nicotinamide]
The “% Inhibition of Apyrase” value of the first is higher: 58% for the first, 6% for the second.

Going from `O=C(Nc1ccccc1N1CCOCC1)c1cccc(S(=O)(=O)N2CCc3ccccc32)c1` [I-585, 3-(indolin-1-ylsulfonyl)-N-(2-morpholinophenyl)benzamide] to `O=C(Nc1cccc2ncccc12)c1cccc(S(=O)(=O)N2CCc3ccccc32)c1` [I-596, 3-(indolin-1-ylsulfonyl)-N-(quinolin-5-yl)benzamide], the “% Inhibition of Apyrase” value falls from 45% to 35%.

First: O=C(Nc1cccc(C(F)(F)F)c1)c1cccc(NS(=O)(=O)c2ccc(Cl)nc2)c1 [I-643, 3-((6-chloropyridine)-3-sulfonamido)-N-(3-(trifluoromethyl)phenyl)benzamide]
Second: O=C(Nc1ccc(S(=O)(=O)Nc2cccc(C(F)(F)F)c2)cc1)c1ccc(Cl)c([N+](=O)[O-])c1 [I-979, 4-chloro-3-nitro-N-(4-(N-(3-(trifluoromethyl)phenyl)sulfamoyl)phenyl) benzamide]
The “% Inhibition of Apyrase” value of the first is lower: 55% for the first, 58% for the second.

Going from `O=C(Nc1ccc2c(c1)OCO2)c1ccc(NS(=O)(=O)c2ccc(Br)cc2)cc1` [I-935, N-(benzo[d][1,3]dioxol-5-yl)-4-((4-bromophenyl)sulfonamido)benzamide] to `O=C(Nc1ccc2c(c1)OCCCO2)c1ccc(S(=O)(=O)Nc2ccc(F)cc2)cc1` [I-415, N-(3,4-dihydro-2H-benzo[b][1,4]dioxepin-7-yl)-4-(N-(4-fluorophenyl)sulfamoyl)benzamide], the “% Inhibition of Apyrase” value falls from 52% to 13%.

Compared with `COc1ccc(NC(=O)c2ccc(S(=O)(=O)Nc3cccc(C(F)(F)F)c3)cc2)c(OC)c1` [I-399, N-(2,4-dimethoxyphenyl)-4-(N-(3-(trifluoromethyl)phenyl)sulfamoyl)benzamide], `CCOc1ccc(NC(=O)c2ccc(NS(=O)(=O)c3cccc(C(F)(F)F)c3)cc2)cc1` [I-900, N-(4-ethoxyphenyl)-4-((3-(trifluoromethyl)phenyl)sulfonamido) benzamide] is higher in “% Inhibition of Apyrase” value: 43% for the first, 65% for the second.

Going from `Cc1ccc(N(C)S(=O)(=O)c2cccc(C(=O)N3c4ccccc4CC3C)c2)cc1` (stereo not shown) [I-481, N-methyl-3-(2-methylindoline-1-carbonyl)-N-(p-tolyl)benzenesulfonamide] to `Cc1ccc(N(C)S(=O)(=O)c2cccc(C(=O)N3CCc4ccccc43)c2)cc1` [I-558, 3-(indoline-1-carbonyl)-N-methyl-N-(p-tolyl)benzenesulfonamide], the “% Inhibition of Apyrase” value falls from 58% to 52%.

Going from `CC1Cc2ccccc2N1S(=O)(=O)c1cccc(C(=O)Nc2ccc3c(c2)OCCCO3)c1` (stereo not shown) [I-582, N-(3,4-dihydro-2H-benzo[b][1,4]dioxepin-7-yl)-3-((2-methylindolin-1-yl)sulfonyl)benzamide] to `Cc1ccc(NC(=O)c2cccc(S(=O)(=O)N3c4ccccc4CC3C)c2)c(C)c1` (stereo not shown) [I-547, N-(2,4-dimethylphenyl)-3-((2-methylindolin-1-yl)sulfonyl)benzamide], the “% Inhibition of Apyrase” value rises from 47% to 53%.

Compared with `CN(c1ccccc1)S(=O)(=O)c1ccccc1C(=O)Nc1ccc(C(N)=O)cc1` [I-816, N-(4-carbamoylphenyl)-2-(N-methyl-N-phenylsulfamoyl)benzamide], `CN(c1ccccc1)S(=O)(=O)c1cccc(NC(=O)c2cnc3n(c2=O)CCS3)c1` [I-732, N-(3-(N-methyl-N-phenylsulfamoyl)phenyl)-5-oxo-2,3-dihydro-5H-thiazolo[3,2-a]pyrimidine-6-carboxamide] is higher in “% Inhibition of Apyrase” value: 29% for the first, 55% for the second.

Going from `COc1ccccc1NS(=O)(=O)c1ccc(NC(=O)c2ccc(C#N)cc2)cc1` [I-999, 4-cyano-N-(4-(N-(2-methoxyphenyl)sulfamoyl)phenyl)benzamide] to `Cc1cccc(NC(=O)c2ccc(NS(=O)(=O)c3ccc(F)cc3)cc2)c1C` [I-937, N-(2,3-dimethylphenyl)-4-((4-fluorophenyl)sulfonamido)benzamide], the “% Inhibition of Apyrase” value rises from 29% to 52%.

`COc1ccccc1N(C)S(=O)(=O)c1ccc(C(=O)N2CCc3ccccc32)cc1` [I-870, 4-(indoline-1-carbonyl)-N-(2-methoxyphenyl)-N-methylbenzenesulfonamide] and `COc1ccc(S(=O)(=O)N2CCc3ccccc32)cc1C(=O)Nc1cccc(C)c1` [I-499, 5-(indolin-1-ylsulfonyl)-2-methoxy-N-(m-tolyl)benzamide] are the same in “% Inhibition of Apyrase” value: 57% for the first, 57% for the second.

Compared with `CC1Cc2ccccc2N1C(=O)c1cccc(S(=O)(=O)Nc2ccccc2F)c1` (stereo not shown) [I-533, N-(2-fluorophenyl)-3-(2-methylindoline-1-carbonyl)benzenesulfonamide], `CC1Cc2ccccc2N1C(=O)c1cccc(S(=O)(=O)Nc2cc(C(F)(F)F)ccc2Cl)c1` (stereo not shown) [I-579, N-(2-chloro-5-(trifluoromethyl)phenyl)-3-(2-methylindoline-1-carbonyl)benzenesulfonamide] is lower in “% Inhibition of Apyrase” value: 54% for the first, 48% for the second.

First: Cc1ccc(NC(=O)c2ccccc2NS(=O)(=O)c2cccc(C(F)(F)F)c2)cc1 [I-231, N-(p-tolyl)-2-((3-(trifluoromethyl)phenyl)sulfonamido)benzamide]
Second: Cc1ccc(C)c(S(=O)(=O)Nc2ccc(C(=O)Nc3ccccc3F)cc2)c1 [I-907, 4-((2,5-dimethylphenyl)sulfonamido)-N-(2-fluorophenyl)benzamide]
The “% Inhibition of Apyrase” value of the first is lower: 58% for the first, 61% for the second.

First: O=C(Nc1ccc2c(c1)OC1(CCCC1)O2)c1cccc(S(=O)(=O)Nc2ccc3c(c2)OCO3)c1 [I-531, 3-(N-(benzo[d][1,3]dioxol-5-yl)sulfamoyl)-N-(spiro[benzo[d][1,3]dioxole-2,1′-cyclopentan]-5-yl)benzamide]
Second: O=C(Nc1ccccc1F)c1cccc(S(=O)(=O)Nc2ccc3c(c2)OCO3)c1 [I-249, 3-(N-(benzo[d][1,3]dioxol-5-yl)sulfamoyl)-N-(2-fluorophenyl)benzamide]
The “% Inhibition of Apyrase” value of the first is lower: 55% for the first, 63% for the second.

Going from `CCOC(=O)c1sc(NC(=O)c2cccc(S(=O)(=O)Nc3ccc(F)cc3)c2)cc1C` [I-431, ethyl 5-(3-(N-(4-fluorophenyl)sulfamoyl)benzamido)-3-methylthiophene-2-carboxylate] to `Cn1cc(O)nc1NC(=O)c1cccc(S(=O)(=O)Nc2ccc(Br)cc2)c1` [I-272, 3-(N-(4-bromophenyl)sulfamoyl)-N-(4-hydroxy-1-methyl-1H-imidazol-2-yl)benzamide], the “% Inhibition of Apyrase” value falls from 68% to 52%.

First: COc1ccc(NC(=O)c2cccc(NS(=O)(=O)c3ccc(Br)cc3)c2)cn1 [I-645, 3-((4-bromophenyl)sulfonamido)-N-(6-methoxypyridin-3-yl)benzamide]
Second: CCOc1ccc(S(=O)(=O)Nc2cccc(C(=O)Nc3nnc[nH]3)c2)cc1 [I-671, 3-((4-ethoxyphenyl)sulfonamido)-N-(4H-1,2,4-triazol-3-yl)benzamide]
The “% Inhibition of Apyrase” value of the first is higher: 54% for the first, 2% for the second.

Going from `Cc1ccc(NS(=O)(=O)c2ccc(C(=O)Nc3ccc(Cl)cc3C)cc2)cc1` [I-396, N-(4-chloro-2-methylphenyl)-4-(N-(p-tolyl)sulfamoyl)benzamide] to `Cc1ccc(NS(=O)(=O)c2ccc(C(=O)Nc3ccc(C)cc3Br)cc2)cc1` [I-862, N-(2-bromo-4-methylphenyl)-4-(N-(p-tolyl)sulfamoyl)benzamide], the “% Inhibition of Apyrase” value rises from 50% to 61%.

Going from `O=C(Nc1ccc(Cl)cc1Cl)c1cccc(S(=O)(=O)Nc2ccc(Cl)cc2)c1` [I-519, 3-(N-(4-chlorophenyl)sulfamoyl)-N-(2,4-dichlorophenyl)benzamide] to `COc1cccc(S(=O)(=O)Nc2ccc(C(=O)Nc3ccc4c(c3)OCCO4)cc2)c1` [I-903, N-(2,3-dihydrobenzo[b][1,4]dioxin-6-yl)-4-((3-methoxyphenyl)sulfonamido)benzamide], the “% Inhibition of Apyrase” value rises from 56% to 62%.

First: O=C(Nc1cccc(S(=O)(=O)Nc2ccccc2Cl)c1)c1ccc2ccccc2n1 [I-734, N-(3-(N-(2-chlorophenyl)sulfamoyl)phenyl)quinoline-2-carboxamide]
Second: O=C(Nc1cccc(S(=O)(=O)Nc2ccccc2)c1)c1cccc(Cl)n1 [I-729, 6-chloro-N-(3-(N-phenylsulfamoyl)phenyl)picolinamide]
The “% Inhibition of Apyrase” value of the first is lower: 54% for the first, 56% for the second.

First: Cc1ccc([N+](=O)[O-])cc1NC(=O)c1cc(S(=O)(=O)Nc2ccc(Br)cc2)c(Cl)cc1Cl [I-49, 5-(N-(4-bromophenyl)sulfamoyl)-2,4-dichloro-N-(2-methyl-5-nitrophenyl)benzamide]
Second: CC(=O)c1cc2c(cc1NC(=O)c1ccc(S(=O)(=O)N3CCCc4ccccc43)cc1)OCO2 [I-881, N-(6-acetylbenzo[d][1,3]dioxol-5-yl)-4-((3,4-dihydroquinolin-1(2H)-yl)sulfonyl)benzamide]
The “% Inhibition of Apyrase” value of the first is lower: 11% for the first, 53% for the second.

From patent US12685312B2, “Sulfonamide apyrase inhibitors” (Texas Crop Science, Inc., priority 2022, dated 2026)
